Reference: EPA's ToxValDB 9.5 (doi:10.2903/j.efsa.2014.3353)

Columns and labels:
[1] = test system: Apis mellifera; details: acute, duration: 48 hours, mortality
[2] = test system: Bibionidae; details: chronic/long-term; duration: 28 days; development
[3] = test system: Colinus virginianus; details: for LD50: acute, oral, mortality
[4] = test system: Cyprinodon variegatus; details: acute; duration: 96 hours; mortality
[5] = test system: Daphnia magna; details: chronic/long-term; duration: 21 days; mobility
[6] = test system: Oryctolagus sp.; details: reproduction developmental; body weight
[7] = test system: Pimephales promelas; details: chronic/long-term; duration: 28 days; growth
[8] = test system: Rattus norvegicus
[9] = test system: Tagia sp.; details: acute; duration: 14 days; mortality

**Q.** What does the source list for COc1cc(OC)nc(NC(=O)NS(=O)(=O)Nc2ccccc2C(=O)N(C)C)n1 [Orthosulfamuron]?
**A.** LD50 ([1]; dermal): > 100 µg/piece; LC50 ([1]; oral, unspecified): > 109 µg/piece; NOEC [2]: 66.9 mg/L; LD50 ([3]; duration: 5 days, diet): > 936 mg/kg-day; LD50 [3]: > 2000 mg/kg-day; NOEC ([3]; reproduction developmental, duration: 21 weeks): 112 mg/kg-day; LC50 [4]: > 123 µg/mL; NOEC [5]: 10 mg/L; NOAEL [6]: 75 mg/kg-day; NOEC [7]: 6.1 mg/L; LD50 ([8]; acute, oral, mortality): > 5000 mg/kg-day; NOAEL ([8]; chronic, duration: 2 years, other): 5 mg/kg-day; NOAEL ([8]; reproduction developmental, mobility): 70.8 mg/kg-day; NOAEL ([8]; reproduction developmental, other): 5 mg/kg-day; LOAEL ([8]; subchronic, duration: 90 days, oral, immunology): 19 mg/kg-day; LC50 [9]: > 1000 mg/kg
